Experiment in all cases: Protein kinase inhibition assay
What all share (format): biochemical

Assay [1] deals with CDK7/cyclinH/MAT1(h) (Homo sapiens, UniProt P50613). The note with it: read-out: percent residual activity of CDK7/cyclinH/MAT1(h). The protocol:
(§1) Certain compounds were tested for activity in protein kinase inhibition assays. All substrates were dissolved and diluted to working stocks in de-ionized water, apart from histone H1 (10× working stock in 20 mM MOPS pH 7.0), PDKtide (10× working stock in 50 mM Tris pH 7.0) ATF2 (which is typically stored at a 20× working stock in 50 mM Tris pH 7.5, 150 mM NaCl, 0.1 mM EGTA, 0.03% Brij-35, 50% glycerol, 1 mM benzamidine, 0.2 mM PMSF and 0.1% R-mercaptoethanol), KKLNRTLSFAEPG (SEQ ID NO:203) and RRRLSFAEPG (SEQ ID NO:204) (50 mM HEPES pH 7.4) and GGEEEEYFELVKKKK (SEQ ID NO:205) (20 mM MOPS pH 7.0). All kinases were pre-diluted to a 10× working concentration prior to addition into the assay. The composition of the dilution buffer for each kinase is detailed below.
(§2) In a final reaction volume of 25 μl, CDK7/cyclinH/MAT1 (h) (5-10 mU) is incubated with 8 mM MOPS pH 7.0, 0.2 mM EDTA, 500 μM peptide, 10 mM MgAcetate and [y-33P-ATP] (specific activity approx. 500 cpm/pmol, concentration as required). The reaction is initiated by the addition of the MgATP mix. After incubation for 40 minutes at room temperature, the reaction is stopped by the addition of 5 μl of a 3% phosphoric acid solution. 10 μl of the reaction is then spotted onto a P30 filtermat and washed three times for 5 minutes in 75 mM phosphoric acid and once in methanol prior to drying and scintillation counting.

Assay [2] has as its target CK1δ(h) (Homo sapiens, UniProt P48730). The note with it: read-out: percent residual activity of CK1δ(h). How it is done: as §1
as §2, with “μl, CK1δ” for “μl, CDK7/cyclinH/MAT1”, “EDTA, 200” for “EDTA, 500”, “μM KRRRALS(p)VASLPGL (SEQ ID NO:214),” for “μM peptide,”, “and [gamma-33P-ATP]” for “and [y-33P-ATP]”

Assay [3] addresses CSK(h) (Homo sapiens, UniProt P41240). The note with it: read-out: percent residual activity of CSK(h). The protocol: as §1
In a final reaction volume of 25 μl, CSK (h) (5-10 mU) is incubated with 50 mM Tris pH 7.5, 0.1 mM EGTA, 0.1 mM Na3VO4, 0.1% R-mercaptoethanol, 0.1 mg/ml poly(Glu, Tyr) 4:1, 10 mM MnCl2, 10 mM MgAcetate and [gamma-33P-ATP] (specific activity approx. 500 cpm/pmol, concentration as required). The reaction is initiated by the addition of the MgATP mix. After incubation for 40 minutes at room temperature, the reaction is stopped by the addition of 5 μl of a 3% phosphoric acid solution. […]

The target in assay [4] is Lyn(h) (Homo sapiens, UniProt P07948). The note with it: read-out: percent residual activity of Lyn(h). The protocol: as §1
Sequence of Lyn(h) (P07948 whole entry): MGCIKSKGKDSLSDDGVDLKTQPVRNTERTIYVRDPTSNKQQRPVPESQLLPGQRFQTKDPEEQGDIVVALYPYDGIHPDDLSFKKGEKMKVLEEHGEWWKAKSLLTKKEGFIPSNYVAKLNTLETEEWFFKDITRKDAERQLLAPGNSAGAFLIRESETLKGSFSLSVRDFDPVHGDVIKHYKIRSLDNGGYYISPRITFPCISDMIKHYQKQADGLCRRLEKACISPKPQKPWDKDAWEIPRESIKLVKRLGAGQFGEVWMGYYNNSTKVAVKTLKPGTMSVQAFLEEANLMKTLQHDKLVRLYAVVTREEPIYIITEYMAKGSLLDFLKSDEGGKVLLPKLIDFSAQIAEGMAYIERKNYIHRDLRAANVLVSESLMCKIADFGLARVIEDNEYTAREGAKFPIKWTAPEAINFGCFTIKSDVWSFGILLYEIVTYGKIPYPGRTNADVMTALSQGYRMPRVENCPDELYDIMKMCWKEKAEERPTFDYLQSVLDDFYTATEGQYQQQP
In a final reaction volume of 25 μl, Lyn (h) (5-10 mU) is incubated with 50 mM Tris pH 7.5, 0.1 mM EGTA, 0.1 mM Na3VO4, 0.1% R-mercaptoethanol, 0.1 mg/ml poly(Glu, Tyr) 4:1, 10 mM MgAcetate and [gamma-33P-ATP] (specific activity approx. 500 cpm/pmol, concentration as required). The reaction is initiated by the addition of the MgATP mix. After incubation for 40 minutes at room temperature, the reaction is stopped by the addition of 5 μl of a 3% phosphoric acid solution. […]

Assay [5] has as its target MAPKAP-K2(h) (Homo sapiens, UniProt P49137). The note with it: read-out: percent residual activity of MAPKAP-K2(h). How it is done:
as §1
In a final reaction volume of 25 μl, MAPKAP-K2 (h) (5-10 mU) is incubated with 50 mM Na R-glycerophosphate pH 7.5, 0.1 mM EGTA, 30 μM KKLNRTLSVA (SEQ ID NO:212), 10 mM MgAcetate and [gamma-33P-ATP] (specific activity approx. 500 cpm/pmol, concentration as required). The reaction is initiated by the addition of the MgATP mix. After incubation for 40 minutes at room temperature, the reaction is stopped by the addition of 5 μl of a 3% phosphoric acid solution. […]

Assay [6] has as its target PKCγ(h) (Homo sapiens, UniProt P05129). The note with it: read-out: percent residual activity of PKCγ(h). The protocol:
as §1
In a final reaction volume of 25 μl, PKCγ (h) (5-10 mU) is incubated with 20 mM HEPES pH 7.4, 0.03% Triton X-100, […], 0.1 mg/ml phosphatidylserine, 10 μg/ml diacylglycerol, 0.1 mg/ml histone H1, 10 mM MgAcetate and [gamma-33P-ATP] (specific activity approx. 500 cpm/pmol, concentration as required). The reaction is initiated by the addition of the MgATP mix. After incubation for 40 minutes at room temperature, the reaction is stopped by the addition of 5 μl of a 3% phosphoric acid solution. […]

This note sets out measurements from US20070117770A1, “Human ribosomal DNA (rDNA) and ribosomal RNA (rRNA) nucleic acids and uses thereof” (Cylene Pharmaceuticals, Inc., priority 2005, published 2007).

Structures are written as SMILES.

Sequence of CDK7/cyclinH/MAT1(h) (P50613 whole entry): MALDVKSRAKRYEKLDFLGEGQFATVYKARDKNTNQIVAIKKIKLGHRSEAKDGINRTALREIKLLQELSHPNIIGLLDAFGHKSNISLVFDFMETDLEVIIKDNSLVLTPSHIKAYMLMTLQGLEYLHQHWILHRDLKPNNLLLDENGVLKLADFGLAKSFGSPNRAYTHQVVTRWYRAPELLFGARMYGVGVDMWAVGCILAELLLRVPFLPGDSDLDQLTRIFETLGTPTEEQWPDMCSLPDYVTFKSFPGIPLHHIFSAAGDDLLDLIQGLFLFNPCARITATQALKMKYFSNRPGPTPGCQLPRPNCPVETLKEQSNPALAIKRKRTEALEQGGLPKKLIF
Sequence of CDK7/cyclinH/MAT1(h) (P51946 whole entry partner): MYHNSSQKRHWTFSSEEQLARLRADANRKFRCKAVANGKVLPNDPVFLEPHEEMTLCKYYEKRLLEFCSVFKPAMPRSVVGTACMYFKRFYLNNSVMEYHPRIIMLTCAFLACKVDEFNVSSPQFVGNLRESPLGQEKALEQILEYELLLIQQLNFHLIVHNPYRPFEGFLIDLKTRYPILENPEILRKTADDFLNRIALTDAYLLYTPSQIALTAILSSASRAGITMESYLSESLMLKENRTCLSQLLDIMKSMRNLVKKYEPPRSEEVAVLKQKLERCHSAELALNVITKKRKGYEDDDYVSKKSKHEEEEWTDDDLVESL
Sequence of CDK7/cyclinH/MAT1(h) (P51948 whole entry partner): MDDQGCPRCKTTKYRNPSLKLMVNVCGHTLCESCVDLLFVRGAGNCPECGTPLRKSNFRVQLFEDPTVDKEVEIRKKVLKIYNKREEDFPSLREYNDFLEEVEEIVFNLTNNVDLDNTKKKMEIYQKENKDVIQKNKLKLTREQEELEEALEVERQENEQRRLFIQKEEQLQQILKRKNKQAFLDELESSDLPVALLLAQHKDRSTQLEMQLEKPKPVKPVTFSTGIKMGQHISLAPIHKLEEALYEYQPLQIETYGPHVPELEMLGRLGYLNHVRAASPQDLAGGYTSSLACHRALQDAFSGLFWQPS
Sequence of CK1δ(h) (P48730 whole entry): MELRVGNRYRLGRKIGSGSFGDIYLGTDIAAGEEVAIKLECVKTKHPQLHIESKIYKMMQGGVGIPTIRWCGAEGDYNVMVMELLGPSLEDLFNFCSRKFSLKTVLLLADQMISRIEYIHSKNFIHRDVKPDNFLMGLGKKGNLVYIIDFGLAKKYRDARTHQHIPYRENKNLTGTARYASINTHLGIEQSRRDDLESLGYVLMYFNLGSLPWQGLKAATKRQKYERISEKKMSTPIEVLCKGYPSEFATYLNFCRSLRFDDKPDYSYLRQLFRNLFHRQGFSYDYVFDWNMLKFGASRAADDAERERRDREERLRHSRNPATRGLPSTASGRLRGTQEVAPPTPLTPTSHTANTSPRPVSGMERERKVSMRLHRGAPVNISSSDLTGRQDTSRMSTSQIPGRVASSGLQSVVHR
Sequence of CSK(h) (P41240 whole entry): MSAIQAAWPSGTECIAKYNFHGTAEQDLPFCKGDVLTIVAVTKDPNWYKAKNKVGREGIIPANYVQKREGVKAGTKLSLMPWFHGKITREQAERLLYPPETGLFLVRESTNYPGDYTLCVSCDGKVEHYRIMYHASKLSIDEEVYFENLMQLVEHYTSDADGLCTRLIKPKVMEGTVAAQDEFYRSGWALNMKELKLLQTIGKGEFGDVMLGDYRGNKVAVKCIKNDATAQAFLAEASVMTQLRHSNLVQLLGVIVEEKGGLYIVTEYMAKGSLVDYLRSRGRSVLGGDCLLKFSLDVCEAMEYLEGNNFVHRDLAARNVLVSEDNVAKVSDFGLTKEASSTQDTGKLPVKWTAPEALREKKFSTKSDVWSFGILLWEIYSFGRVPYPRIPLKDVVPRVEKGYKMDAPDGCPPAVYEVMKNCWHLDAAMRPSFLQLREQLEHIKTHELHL
Sequence of MAPKAP-K2(h) (P49137 whole entry): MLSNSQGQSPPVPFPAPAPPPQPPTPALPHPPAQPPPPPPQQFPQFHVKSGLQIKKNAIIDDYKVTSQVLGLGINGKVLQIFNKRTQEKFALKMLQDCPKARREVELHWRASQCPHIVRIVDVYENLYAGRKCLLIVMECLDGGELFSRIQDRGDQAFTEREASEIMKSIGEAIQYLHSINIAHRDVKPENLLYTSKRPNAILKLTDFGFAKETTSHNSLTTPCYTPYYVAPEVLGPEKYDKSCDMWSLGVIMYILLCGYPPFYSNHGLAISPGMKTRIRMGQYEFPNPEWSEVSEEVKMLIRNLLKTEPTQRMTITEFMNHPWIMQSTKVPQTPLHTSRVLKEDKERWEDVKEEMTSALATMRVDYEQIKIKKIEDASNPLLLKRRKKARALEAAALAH

Take `CN1CCCC1CCNC(=O)c1cn2c3c(c(N4CCC(c5cnccn5)C4)c(F)cc3c1=O)Oc1cc3ccccc3cc1-2` (stereo not drawn) [Compound A-1]: the remaining activity at 2.5 µM was 72% in assay [1]; 87% in assay [2]; 116% in assay [3]; 110% in assay [4]; 79% in assay [5]; 110% in assay [6].

Take `CC(=O)N1CCN(c2ccc3c(=O)c(C(=O)NCCN4CCCC4)c4n(C)c5ccccc5n4c3n2)CC1` [Compound B-1]: the remaining activity at 2.5 µM in assay [1] was 95%; in assay [2], 92%; in assay [3], 92%; in assay [4], 122%; in assay [5], 99%; in assay [6] it was 102%.
